In article PMC10380841, “Synthesis, Characterization and Cytotoxic Evaluation of New Pyrrolo[1,2-b]pyridazines Obtained via Mesoionic Oxazolo-Pyridazinones” (International Journal of Molecular Sciences, 2023):
“Also recorded” adds a separate entry of the source. Read-outs that look alike come from different tables or passages of the source.

How the values were obtained:
[1] = test system: LoVo colon adenocarcinoma cells; assay: MTS cytotoxicity assay, LoVo; assay type: cell-based, human
Procedure: (§1) Therefore, the precursor acids 2a–c and corresponding pyrrolo[1,2-b]pyridazines 5a–c,f were tested for their potential cytotoxic activity. During the assays, increasing concentrations of the compounds, ranging from […], were added for 24 h or 48 h to cancer LoVo, SK-OV-3, MCF-7, and the reference HUVEC cells, previously cultured for 24 h in 96-well flat bottom plates. […] Then, MTS reagent was added, and cells were incubated for 4 h at 37 °C in a 5% CO2 humidified atmosphere. The absorbance values were spectrophotometrically read to a Dynex ELISA reader at λ = […].
(§2) For the evaluation of the in vitro potential anti-proliferative effects of treatments with the new compounds under study against solid tumor-derived cells, several compound-mediated cytotoxicity assays were performed on three adherent tumor standardized cell lines, and normal human endothelial cells, used as control: the MCF-7 human breast adenocarcinoma and SK-OV-3 human ovary adenocarcinoma cell lines were provided from European Collection of Authenticated Cell Cultures (ECACC), while LoVo, human colorectal adenocarcinoma cell line, and HUVEC human umbilical vein endothelial cells were purchased from American Type Culture Collection (ATCC).
(§3) Adherent cells were cultivated in DMEM/F12 medium added with 2 mM L-glutamine and 10% fetal bovine serum, 100 units/mL penicillin, 100 µg/mL streptomycin (Sigma Aldrich, St. Louis, MO, USA) and incubated at 37 °C in 5% CO2 humidified atmosphere. The stock solutions for cell treatments were prepared by dissolving the synthesized compounds in a minimum amount of DMSO. Working dilutions were prepared from the stock solutions in culture medium before each treatment assay. After 24 h, when cell cultures achieved around 70% confluence, treatments were applied for various periods of time with different concentrations of synthesized compounds or oncolytic drugs, used as positive controls.
(§4) Therefore, cell cultures treated with the new compounds or oncolytic drugs for 24 h or 48 h were further subjected to a colorimetric cell viability method, the MTS assay. The absorbance of probes was read, data were calculated, and percentages of cell viability were assessed.
(§5) The evaluation of the compound-induced cytotoxicity was made using the CellTiter 96 Aqueous One Solution Cell Proliferation Assay (Promega, Madison, WI, USA), a reagent that contains both MTS (3-(4,5-dimethylthiazol-2-yl)-5-(3-carboxymethoxyphenyl)-2-(4-sulfophenyl)-2H-tetrazolium, inner salt) and PES ([…], a cationic dye with high chemical stability that binds to MTS and forms a stable solution).
(§6) Briefly, 1.5 × 10^4 cancer or normal cells were cultured in 100 µL/well for 24 h. After the culture supernatants were discarded, cells were treated for additional 24 h or 48 h with increasing concentrations of new compounds or oncolytic drugs. Following the specific treatments, in each well a volume of 20 µL of coloring mixture reagent of MTS and PES was added, and then the plates were incubated with mild agitation every 20 min for 4 h at 37 °C. The color developed during incubation was spectrophotometrically quantified at λ = 492 nm using a Dynex ELISA reader (DYNEX Technologies—MRS, Chantilly, VA, USA).
(§7) Data were expressed as percentages of cell viability of the treated cells, and were calculated and compared to the untreated cells (considered 100% viable), using the formula:Cell viability (%) = (T − B)/(U − B) × 100 where T = absorbance of treated cells, U = absorbance of untreated cells, and B = absorbance of culture medium (blank), for λ = 492 nm.
(§8) The cell viability data were expressed as the mean values ± standard deviations (SD) of three different experiments (n = 3). […] Moreover, a parallel experiment was performed in the absence of cells, with all the concentrations of the compounds being tested for their potential interference with MTS reagents; then, their absorbance values were extracted during calculations.

[2] = test system: SK-OV-3 ovary adenocarcinoma cells; assay: MTS cytotoxicity assay, SK-OV-3; assay type: cell-based, human
Procedure: as §1, §2, §3, §4, §5, §6, §7, §8

Triticum aestivum L. = assay: Triticum test, phytotoxicity (main root length); assay type: in vivo; details: Triticum aestivum, 72 h; Triticum root length, 10–1000 µM, measured over three days
Procedure: Phytobiological testing (Triticum test) was performed by the Constantinescu method which consists in determining the maximum active dilution of a compound. Depending on the duration of action, it can influence root elongation and the […] film. […] Embryonic wheat roots were obtained by germinating homogeneous wheat caryopses in Linhart pots. Then the caryopses with a main root length of 1 cm were placed in the test solutions. For the determination of the action of each compound, five dilutions in the concentration range of 10–1000 µM were obtained and 11 caryopses were placed in them. Petri dishes containing 15 mL of diluted solution were kept under constant conditions of temperature (25 °C), and humidity (60%), in the absence of light. […] The results were expressed in comparison with a 1% DMSO control.
Statistical analyses were performed using the computing and programming environment R, R, v. 4.2.1 [68], under Rstudio, v. 2022.07.2+576 “Spotted Wakerobin” for Windows (RStudio, PBC, Boston, 2022), both for the Triticum and Artemia tests. It used a parametric mixed-effects model (R package “lme4”) and a robust mixed-effects model (R package “robustlmm”), in which root length measurements (Triticum) from all three days were used as the dependent variable, whereas compound, concentration and time were treated as fixed effects, with time (day of measurement) also treated as a random effect. Assessing statistical significance for mixed-effects statistical models is controversial and complex, but as a pragmatic way of working, we have estimated p-values using the Kenward–Rogers approximation (R package “sjPlot”). A variety of R base functions and R packages were used to diagnose the regression models (“car” [72], “MASS” [73], and “gvlma” [74]). Mixed boxplot–dotplot plots were generated using the “ggplot2” package.
The “drc” R package was used to estimate IC50 values for the Triticum bioassay by nonlinear modeling. For Triticum, the relationship between root length and concentration was modeled using Weibull functions with 2, 3, or 4 parameters, depending on the data distribution, the models being selected from a range of several models with different functions and parameters, based on the Akaike’s information criterion (AIC).

[3] = test system: Triticum vulgare root tips; assay: Microscopic examination of Triticum root tips (mitotic film changes); assay type: in vivo; details: 24 h contact
Procedure: Microscopic examination of Triticum vulgare root tips followed the mitotic film changes induced by the tested compounds. Observations were made after 24 h of contact of the caryopses with the test solutions. The study was made in comparison with DMSO control maintained under the same conditions as the samples. To obtain microscopic preparations, sectioning of wheat embryonic roots was carried out at about 5 mm from the tip and stained with dilute […] according to the La Cour procedure. The examination was conducted on a Euromex oxion series 110–240 V/50–60 Hz microscope with digital camera CEMEX 5 DC 5000 C and 40× and 100× lenses with cedar oil immersion (Sigma-Aldrich St. Louis, MO, USA).

Daphnia magna Straus = assay: Daphnia magna toxicity assay; assay type: in vivo; details: for toxicity on Daphnia magna / L% values (lethality): 48 h; for L% values (lethality): all tested concentrations
Procedure: (§9) Young organisms of Daphnia magna were selected according to their size from a parthenogenetic culture maintained in an artificial medium for 24 h before the bioassay. The determination was conducted in tissue culture plates with 12 wells (Greiner Bio-One, Monroe, NC, USA), with 10 organisms in each well, and a final volume of 3 mL per sample [65, 66]. As a negative control, DMSO was used at a concentration of 1%. All compounds were tested at six different concentration levels, ranging from 12.5 to 500 μg/mL. All assessments were performed in duplicate.

[4] = test system: MCF-7 breast adenocarcinoma cells; assay: MTS cytotoxicity assay, MCF-7; assay type: cell-based, human; details: Homo sapiens, MCF7; for IC50: MCF-7, 48 h, read-out: IC50 MCF-7 48 h; for viability at 400 µM: MCF-7, 400 μM, 48 h, read-out: cell viability
Procedure: as §1, §2, §3, §4
as §5, with “solution). The assay is based on the ability of the metabolically active cells to reduce the yellow tetrazolium salt MTS to a compound that is soluble in culture medium, the colored formazan, followed by the spectrophotometric evaluation of its concentration.” for “solution).”
as §6, §7
The cell viability data were expressed as the mean values ± standard deviations (SD) of three different experiments (n = 3). […]

[5] = test system: LoVo colon adenocarcinoma cells; assay: MTS cytotoxicity assay, LoVo; assay type: cell-based; details: Homo sapiens, read-out: cell viability
[6] = test system: SK-OV-3 ovary adenocarcinoma cells; assay: MTS cytotoxicity assay, SK-OV-3; assay type: cell-based; details: Homo sapiens; SK-OV-3, 400 μM, 24 h; read-out: cell viability
[7] = Daphnia magna toxicity assay; assay type: in vivo; details: Daphnia magna, in vivo; 48 h
Procedure: as §9

[8] = Homo sapiens, 24 h, read-out: IC50 LoVo 24 h
[9] = Homo sapiens, 48 h, read-out: IC50 LoVo 48 h
[10] = Homo sapiens, SK-OV-3, 24 h, read-out: IC50 Sk-OV-3 24 h
[11] = Homo sapiens, SK-OV-3, 48 h, read-out: IC50 Sk-OV-3 48 h

SMILES	IC50 (Triticum aestivum L.) [µM]	mitotic film / cell changes in root tips ([3]; 1000 μM)	toxicity on Daphnia magna (Daphnia magna Straus)	L% values (lethality) (Daphnia magna Straus)	IC50 [1, 8] [µM]	IC50 [1, 9] [µM]	IC50 [4] [µM]	IC50 [2, 10] [µM]	IC50 [2, 11] [µM]	viability at 400 µM ([5]; 24 h) [%]	viability at 400 µM ([5]; 48 h) [%]	viability at 400 µM [6] [%]	LC50 at 48 h [7] [µM]	viability at 100 µM ([5]; 48 h) [%]	viability at 400 µM [4] [%]	further results
N.N.[Cl][Pt][Cl] [CisPt, cisplatin, reference compound]																IC50 ([1]; 24 h, read-out: IC50 LoVo 24 h): 79.1 ± 4.75 µM; IC50 ([1]; 48 h, read-out: IC50 LoVo 48 h): 57 ± 0.95 µM; IC50 ([2]; SK-OV-3, 24 h, read-out: IC50 Sk-OV-3 24 h): 92.2 ± 3.45 µM; IC50 ([2]; SK-OV-3, 48 h, read-out: IC50 Sk-OV-3 48 h): 78.2 ± 4.01 µM
CCC(C(=O)O)n1nc(-c2ccc(F)cc2)ccc1=O (centres unmarked) [Compound 2b, 2-[6-Oxo-3-(4-fluorophenyl)pyridazin-1-yl]butanoic acid]	204	Mitoinhibition and cells with 1-3 nucleoli	no toxicity	ND * (all L% values were lower than 30%)	≥ 400	≥ 400	≥ 400	≥ 400	≥ 400	91	81.1					
CCC(C(=O)O)n1nc(-c2ccc(Cl)cc2)ccc1=O (centres unmarked) [Compound 2c, 2-[6-Oxo-3-(4-chlorophenyl)pyridazin-1-yl]butanoic acid]	553	disorganized metaphase	no toxicity	ND * (all L% values were lower than 30%)	≥ 400	367 ± 3.7		≥ 400	≥ 400	78.2	48.1	88.3				
CCc1cc(C(=O)OC)c2ccc(-c3ccccc3)nn12 [Compound 5a, Methyl 7-ethyl-2-phenylpyrrolo[1,2-b]pyridazine-5-carboxylate]		telophase with delayed chromosome, wavy cell walls; also recorded: no mitoinhibitory effect			≥ 400	304 ± 4.85				63.5	48.5		46.1	58.2		mitotic film / cell changes in root tips ([3]; 100 µM): bridged telophase, disorganized metaphase; maximum lethality (L%) (Daphnia magna Straus; 24 h): 40%; viability at 50 µM ([5]; 24 h): 79%; viability at 50 µM ([5]; 48 h): 65.3%; viability at 100 µM ([5]; 24 h): 78.1%; viability at 200 µM ([5]; 200 μM, 48 h): 52.5%
CCc1cc(C(=O)OC)c2ccc(-c3ccc(F)cc3)nn12 [Compound 5b, Methyl 7-ethyl-2-(4-fluorophenyl)pyrrolo[1,2-b]pyridazine-5-carboxylate]		telophase in tropokinesis, normal, or disorganized metaphase	moderate toxicity		≥ 400	≥ 400	≥ 400	≥ 400	≥ 400	87.8	60.3	78	463	79.4	89.7	
CCc1cc(C(=O)OC)c2ccc(-c3ccc(Cl)cc3)nn12 [Compound 5c, Methyl 2-(4-chlorophenyl)-7-ethylpyrrolo[1,2-b]pyridazine-5-carboxylate]				ND ** (all L% values were in range of 30 to 70%, independent of concentration)	≥ 400	≥ 400	≥ 400	≥ 400	≥ 400	68.6	61.1		~107		88.5	
